This passage reports EC50 results from BindingDB's records for doi:10.1021/acsmedchemlett.0c00340 (California Institute of Technology, 2020).

A short description of the assay: Positive allosteric modulator activity at human alpha1beta2S GABA-A receptor expressed in Xenopus laevis oocytes assessed as change in GABA EC50 at 40 uM by two electrode voltage-clamp assay. In general terms: Two-electrode voltage clamp holds a large cell at a set potential and records current.
By EC50 is commonly meant the concentration giving half of the maximal effect. For `CN1CC[C@]2(O)c3ccccc3N(C)[C@]12c1ccccc1`, the EC50 was determined as 13 µM.
`CN1CC[C@]2(O)c3cc(I)ccc3N(C)[C@]12c1ccccc1`: the EC50 came out at 9 µM.
As for `CN1CC[C@]2(O)c3cc(Br)ccc3N(C)[C@]12c1ccccc1`, the EC50 came to 16 µM.
